Data as given in ChEMBL document CHEMBL3046427, “Wound healing phytoconstituents from seed kernel of Entada pursaetha DC. and their molecular docking studies with glycogen synthase kinase 3-” (2012).
Calls of active or inactive are those of the source. The rule behind the calls is not given here.

Assays:
[1] = test system: Rattus norvegicus; test: Wound healing activity in Rattus norvegicus Swiss albino Wistar (rat) dead space wound model assessed as granular tissue weight per 100 g tissue at 5 mg/ml, po measured on day 10 post-wounding (reference value: 31 +/- 0.93 mg); format: functional
[2] = test system: Rattus norvegicus; test: Wound healing activity in Rattus norvegicus Swiss albino Wistar (rat) incision wound model assessed as skin breaking strength at 5 mg/ml, po measured on day 10 post-wounding by tensiometric analysis (reference value: 400 +/- 28.87 g); format: functional
[3] = test system: Rattus norvegicus; test: Wound healing activity in Rattus norvegicus Swiss albino Wistar (rat) excision wound model assessed as time of epithelialization at 0.2% w/v administered topically (reference value: 24 +/- 0.26 days); format: functional
[4] = test system: Rattus norvegicus; test: Wound healing activity in Rattus norvegicus Swiss albino Wistar (rat) excision wound model assessed as wound closure at 0.2% w/v administered topically measured on day 4 post-wounding (reference value: 25.59 +/- 1.79%); format: functional
[5] = test system: Rattus norvegicus; test: Wound healing activity in Rattus norvegicus Swiss albino Wistar (rat) excision wound model assessed as wound closure at 0.2% w/v administered topically measured on day 16 post-wounding (reference value: 83.31 +/- 1.06%); format: functional
[6] = test system: Rattus norvegicus; test: Wound healing activity in Rattus norvegicus Swiss albino Wistar (rat) excision wound model assessed as wound closure at 0.2% w/v administered topically measured on day 8 post-wounding (reference value: 48.75 +/- 1.34%); format: functional
[7] = test system: Rattus norvegicus; test: Wound healing activity in Rattus norvegicus Swiss albino Wistar (rat) excision wound model assessed as wound closure at 0.2% w/v administered topically measured on day 12 post-wounding (reference value: 69.04 +/- 1.05%); format: functional
[8] = test system: Rattus norvegicus; test: Wound healing activity in Rattus norvegicus Swiss albino Wistar (rat) dead space wound model assessed as hydroxyproline content per 100 g tissue at 5 mg/ml, po measured on day 10 post-wounding by Neuman-Logan method (reference value: 1369.67 +/- 10.54 ug); format: functional
[9] = test system: Rattus norvegicus; test: Wound healing activity in Rattus norvegicus Swiss albino Wistar (rat) dead space wound model assessed as tissue breaking strength at 5 mg/ml, po measured on day 10 post-wounding (reference value: 260.83 +/- 14.05 g); format: functional
[10] = test system: Rattus norvegicus; test: Wound healing activity in Rattus norvegicus Swiss albino Wistar (rat) incision wound model assessed as skin breaking strength at 10 mg/ml, po measured on day 10 by tensiometric analysis (reference value: 400 +/- 28.87 g); format: functional
[11] = test system: Rattus norvegicus; test: Wound healing activity in Rattus norvegicus Swiss albino Wistar (rat) dead space wound model assessed as decrease in macrophages at 10 mg/ml, po measured on day 10 post-wounding by histological analysis relative to control; format: functional, organism-based
[12] = test system: Rattus norvegicus; test: Wound healing activity in Rattus norvegicus Swiss albino Wistar (rat) dead space wound model assessed as increase in collagenation of granulation tissue at 10 mg/ml, po measured on day 10 post-wounding by histological analysis relative to control; format: functional, organism-based
[13] = test system: Rattus norvegicus; test: Wound healing activity in Rattus norvegicus Swiss albino Wistar (rat) dead space wound model assessed as hydroxyproline content per 100 g tissue at 10 mg/ml, po measured on day 10 post-wounding by Neuman-Logan method (reference value: 1369.67 +/- 10.54 ug); format: functional
[14] = test system: Rattus norvegicus; test: Wound healing activity in Rattus norvegicus Swiss albino Wistar (rat) dead space wound model assessed as tissue breaking strength at 10 mg/ml, po measured on day 10 post-wounding (reference value: 260.83 +/- 14.05 g); format: functional
[15] = test system: Rattus norvegicus; test: Wound healing activity in Rattus norvegicus Swiss albino Wistar (rat) dead space wound model assessed as granular tissue weight per 100 g tissue at 10 mg/ml, po measured on day 10 post-wounding (reference value: 31 +/- 0.93 mg); format: functional
[16] = test system: Rattus norvegicus; test: Wound healing activity in po dosed Rattus norvegicus Swiss albino Wistar (rat) incision wound model assessed as skin breaking strength measured on day 10 post-wounding by tensiometric analysis (reference value: 400 +/- 28.87 g); format: functional
[17] = test system: Rattus norvegicus; test: Wound healing activity in Rattus norvegicus Swiss albino Wistar (rat) incision wound model assessed as skin breaking strength at 15 mg/ml, po measured on day 10 post-wounding by tensiometric analysis (reference value: 400 +/- 28.87 g); format: functional
[18] = test system: Rattus norvegicus; test: Wound healing activity in Rattus norvegicus Swiss albino Wistar (rat) dead space wound model assessed as hydroxyproline content per 100 g tissue at 15 mg/ml, po measured on day 10 post-wounding by Neuman-Logan method (reference value: 1369.67 +/- 10.54 ug); format: functional
[19] = test system: Rattus norvegicus; test: Wound healing activity in Rattus norvegicus Swiss albino Wistar (rat) dead space wound model assessed as tissue breaking strength at 15 mg/ml, po measured on day 10 post-wounding (reference value: 260.83 +/- 14.05 g); format: functional
[20] = test system: Rattus norvegicus; test: Wound healing activity in Rattus norvegicus Swiss albino Wistar (rat) dead space wound model assessed as granular tissue weight per 100 g tissue at 15 mg/ml, po measured on day 10 post-wounding (reference value: 31 +/- 0.93 mg); format: functional

`CS/C=C/C(=O)NCCO` [ENTADAMIDE] gave an Activity [1] of 50.75 mg, an Activity [2] of 533.5 g and a Time [3] of 19.92 days. It also gave an Activity [4] of 28.28%, an Activity [5] of 92.22% and an Activity [6] of 57.32%. The Activity [7] was 71.27%, the Activity [8] was 1891.17 µg and the Activity [9] was 463.33 g.

Compound `CC1(C)CC[C@]2(C(=O)O)[C@H](O)[C@H](O)[C@]3(C)C(=CC[C@@H]4[C@@]5(C)CC[C@H](O)C(C)(C)[C@@H]5CC[C@]43C)[C@@H]2C1` [ENTAGENIC ACID] has an Activity [10] of 655.67 g, a Time [3] of 18.08 days and an Activity [4] of 33.39%. For the same compound, the Activity [5] was 96.08%, the Activity [6] was 65.21% and the Activity [7] was 76.38%. For the same compound, the Activity [11] was “Active”, the Activity [12] was “Active” and the Activity [13] was 2001.33 µg. It also gave an Activity [14] of 549.83 g and an Activity [15] of 53.11 mg.

`NC(=O)N/N=C/c1ccc([N+](=O)[O-])o1` [NITROFURAZONE] gave an Activity [16] of 683.33 g, a Time [3] of 16.33 days and an Activity [4] of 41.46%. For the same compound, the Activity [5] was 97.64%, the Activity [6] was 80.7% and the Activity [7] was 91.32%.

`O=C(O)Cc1cc(O)ccc1O[C@@H]1O[C@H](CO)[C@@H](O)[C@H](O)[C@H]1O` [PHASEOLOIDIN] was tested, and the Activity [17] was 490.33 g, the Time [3] was 21.16 days and the Activity [4] was 27.08%. The Activity [5] was 88.5%, the Activity [6] was 52.15% and the Activity [7] was 70.08%. For the same compound, the Activity [18] was 1690.33 µg, the Activity [19] was 450.17 g and the Activity [20] was 43.92 mg.
